Assay results published in patent publication US10202404B2, “Polycyclic pyridone derivative having integrase inhibitory activity” (Shionogi & Co., Ltd., priority 2014, dated 2019).

Tested on: HIV
Assay: Anti-HIV activity (MT-4 cells, MTT)
Type: cell-based
Settings: 50% HIV inhibition concentration, MT-4 cells infected with HIV, incubated 4 days, MTT readout
Protocol: Previously, a series of two-fold dilution on test samples were carried out in a 96-well plate (50 μL/well). Two plates were made for measuring anti-HIV activity and measuring cytotoxicity. For each agent, measurement in duplicate was carried out. An MT-4 cell suspension of 2.5×10^5/mL was dispensed at 100 μL/well onto the 96-well plate containing the test samples. An HIV virus solution was dispensed at 50 μL/well onto the 96-well plate containing the test samples and the cell. To the plate for measuring cytotoxicity, a culture solution was dispensed at 50 μL/well. It was mixed by a plate mixer, and then incubated in a CO2 incubator for 4 days. […] Thirty microliters of a MTT (3-(4,5-dimethylthiazol-2-yl)-2,5-diphenyltetrazolium bromide) solution was dispensed to each well.
A reaction was allowed to occur in a CO2 incubator for an hour. From each well, 150 μL of the supernatant was removed such that cells are not sucked. One-hundred and fifty microliters of a cell lysis solution was added thereto, and then it was mixed well by a plate mixer until the whole cells are lysed. The mixed 96-well plates were measured by a microplate reader at two wavelengths, 560 nm/690 nm. Based on the following calculation formula, 50% HIV inhibition concentration (EC50) was calculated. EC50=10Z Z=(50%−Low %)/(High %−Low %)×{log(High conc.)−log(Low conc.)}+log(Low conc.) Based on the following calculation formula, 50% cytotoxic concentration (CC50) was calculated. CC50=10Z Z=(50%−Low %)/(High %−Low %)×{log(High conc.)−log(Low conc.)}+log(Low conc.) Based on the following calculation formula, selectivity index (ST) was calculated. SI=CC50/EC50 (Result)

[1] = Human immunodeficiency virus 1, MT4, 96 h

Structure (SMILES) | EC50 [nM] | EC50 [1] [nM]
C[C@H]1CCO[C@@H]2Cn3cc(-c4nnc(Cc5cccc(Cl)c5F)s4)c(=O)c(O)c3C(=O)N12 [Compound A-28] |  | 3.3
C[C@@H]1CCO[C@H]2Cn3cc(-c4cn(Cc5ccc(F)cc5F)cn4)c(=O)c(O)c3C(=O)N12 [Compound A-49] | 10 | 
C[C@@H]1CCO[C@H]2Cn3cc(-c4cn(Cc5cccc(Cl)c5F)cn4)c(=O)c(O)c3C(=O)N12 [Compound A-50] |  | 12
CCN1CN([C@H](C)C(F)(F)F)C(=O)c2c(O)c(=O)c(-c3nnc(Cc4cccc(Cl)c4F)s3)cn21 [Compound C-6] |  | 5.7
CCN1CN([C@H](C)C(F)(F)F)C(=O)c2c(O)c(=O)c(-c3nnc(Cc4ccc(F)cc4F)s3)cn21 [Compound C-5] |  | 3.4
O=C1c2c(O)c(=O)c(-c3ncc(Cc4cccc(Cl)c4F)s3)cn2C[C@@H]2CCCN12 [Compound B-14] |  | 10
C[C@@H]1CCO[C@H]2Cn3cc(-c4nnc(Oc5ccc(F)cc5F)s4)c(=O)c(O)c3C(=O)N12 [Compound A-51] | 6.8 | 
COC[C@@H]1CCO[C@H]2Cn3cc(-c4nnc(Cc5ccc(F)cc5F)s4)c(=O)c(O)c3C(=O)N12 [Compound A-67] |  | 4.2
C[C@@H]1CCO[C@H]2Cn3cc(-c4nnc(Cc5ccc(F)c(Cl)c5)s4)c(=O)c(O)c3C(=O)N12 [Compound A-33] |  | 2.5
C[C@@H]1CCO[C@H]2Cn3cc(-c4nnc(Cc5ccc(F)c(F)c5F)s4)c(=O)c(O)c3C(=O)N12 [Compound A-31] |  | 2.3
C[C@H]1CO[C@@H]2Cn3cc(-c4cn(Cc5ccc(F)cc5F)cn4)c(=O)c(O)c3C(=O)N12 [Compound A-44] |  | 5.1
O=C1c2c(O)c(=O)c(-c3nnc(Cc4cccc(Cl)c4F)s3)cn2C[C@H]2CCCN12 [Compound B-4] |  | 5.5
C[C@@H]1CCO[C@H]2Cn3cc(-c4ncc(Cc5cccc(Cl)c5F)s4)c(=O)c(O)c3C(=O)N12 [Compound A-1] |  | 7.8
C[C@@H]1CCN2C(=O)c3c(O)c(=O)c(-c4ncc(Cc5cccc(Cl)c5F)s4)cn3C[C@@H]2O1 [Compound A-5] |  | 8
COCCN1Cn2cc(-c3nnc(Cc4ccc(F)cc4F)s3)c(=O)c(O)c2C(=O)N1CCOC [Compound C-27] |  | 2
Cc1nc(-c2cn3c(c(O)c2=O)C(=O)N2[C@@H](C)CO[C@@H]2C3)sc1Cc1ccc(F)cc1F [Compound A-47] |  | 3.4
COCc1cc(F)cc(F)c1Cc1nnc(-c2cn3c(c(O)c2=O)C(=O)N2[C@H](C)CCO[C@H]2C3)s1 [Compound A-75] |  | 10
COC(=O)OCOc1c2n(cc(-c3nnc(Cc4ccc(F)cc4F)s3)c1=O)C[C@@H]1OCC[C@@H](C)N1C2=O [Compound D-2] |  | 8
C[C@@H]1CCO[C@H]2Cn3cc(-c4cn(Cc5ccc(F)cc5F)cn4)c(=O)c(O)c3C(=O)N12 [Compound A-64] |  | 1.6
CN1Cn2cc(-c3nnc(Cc4ccc(F)cc4F)s3)c(=O)c(O)c2C(=O)N1C [Compound C-18] |  | 2.3

Structure (SMILES) | EC50 [nM] | EC50 [1] [nM]
O=C1c2c(O)c(=O)c(-c3nnc(Cc4c(F)cc(F)cc4F)s3)cn2C[C@H]2CCCCN12 [Compound B-7] |  | 2.9
COCCN1Cn2cc(-c3nnc(Cc4ccc(F)cc4F)s3)c(=O)c(O)c2C(=O)N1C(C)C [Compound C-22] |  | 1.3
C[C@@H]1CCO[C@@H]2Cn3cc(-c4ncc(Cc5ccc(F)cc5F)s4)c(=O)c(O)c3C(=O)N12 [Compound A-13] |  | 6
COCCOC(=O)Oc1c2n(cc(-c3nnc(Cc4ccc(F)cc4F)s3)c1=O)C[C@@H]1OCC[C@@H](C)N1C2=O [Compound D-4] |  | 4.1
C[C@@H]1CCO[C@H]2Cn3cc(-c4cc(Cc5ccc(F)cc5F)sn4)c(=O)c(O)c3C(=O)N12 [Compound A-71] |  | 9.3
C[C@@H]1CO[C@H]2Cn3cc(-c4ncc(Cc5cccc(Cl)c5F)s4)c(=O)c(O)c3C(=O)N2C1 [Compound A-9] |  | 7.1
COCCN1CN(C)n2cc(-c3nnc(Cc4ccc(F)cc4F)s3)c(=O)c(O)c2C1=O [Compound C-3] |  | 1.1
CCN1NCn2cc(-c3nnc(Cc4ccc(F)cc4F)s3)c(=O)c(O)c2C1=O [Compound C-25] |  | 2.2
C[C@@H]1CO[C@H]2Cn3cc(-c4nnc(Cc5ccc(F)cc5F)s4)c(=O)c(O)c3C(=O)N12 [Compound A-19] |  | 3.1
O=C1c2c(O)c(=O)c(-c3nnc(Cc4ccc(F)cc4F)s3)cn2C[C@@H]2CCCCN12 [Compound B-1] | 2.9 | 
O=C1c2c(O)c(=O)c(-c3nnc(Cc4c(F)cc(F)cc4F)s3)cn2C[C@@H]2CCCCN12 [Compound B-8] |  | 3.8
C[C@H]1CN(C2CC2)[C@@H]2Cn3cc(-c4nnc(Cc5ccc(F)cc5F)s4)c(=O)c(O)c3C(=O)N12 [Compound A-60] |  | 2
C[C@H]1N2C(=O)c3c(O)c(=O)c(-c4nnc(Cc5ccc(F)cc5F)s4)cn3C[C@@H]2OCC1(F)F [Compound A-78] |  | 4.6
C[C@@H]1N2C(=O)c3c(O)c(=O)c(-c4nnc(Cc5ccc(F)cc5F)s4)cn3C[C@H]2OCC1(F)F [Compound A-77] |  | 7.2
C[C@H]1[C@H]2CCCN2[C@@H]2Cn3cc(-c4nnc(Cc5ccc(F)cc5F)s4)c(=O)c(O)c3C(=O)N12 [Compound A-62] |  | 1.6
C[C@@H]1CCO[C@H]2Cn3cc(-c4cnc(Cc5ccc(F)cc5F)s4)c(=O)c(O)c3C(=O)N12 [Compound A-40] | 11 | 
C[C@@H]1CCO[C@H]2Cn3cc(-c4nnc(Cc5cc(F)c(F)cc5F)s4)c(=O)c(O)c3C(=O)N12 [Compound A-24] |  | 4.2
C[C@@H]1CO[C@H]2Cn3cc(-c4ncc(Cc5ccc(F)cc5F)s4)c(=O)c(O)c3C(=O)N12 [Compound A-7] |  | 6.5
COCCN1CC[C@H](C)N2C(=O)c3c(O)c(=O)c(-c4nnc(Cc5ccc(F)cc5F)s4)cn3C[C@@H]12 [Compound A-61] |  | 4.1
COc1c(F)ccc(Cc2nnc(-c3cn4c(c(O)c3=O)C(=O)N3[C@H](C)CCO[C@H]3C4)s2)c1F [Compound A-32] |  | 12

Structure (SMILES) | EC50 [nM] | EC50 [1] [nM]
COC[C@H]1CCN2C(=O)c3c(O)c(=O)c(-c4nnc(Cc5ccc(F)cc5F)s4)cn3C[C@H]2O1 [Compound A-69] |  | 5.1
C[C@@H]1CCO[C@H]2Cn3cc(-c4nnc(Cc5cc(C(F)(F)F)cc(Cl)c5F)s4)c(=O)c(O)c3C(=O)N12 [Compound A-34] |  | 13
C[C@H]1CO[C@@H]2Cn3cc(-c4nnc(Cc5cccc(Cl)c5F)s4)c(=O)c(O)c3C(=O)N12 [Compound A-18] |  | 2.3
Cc1nc(-c2cn3c(c(O)c2=O)C(=O)N2[C@H](C)CCO[C@H]2C3)sc1Cc1ccc(F)cc1F [Compound A-45] |  | 4.1
O=C1c2c(O)c(=O)c(-c3nnc(Cc4ccc(F)cc4F)s3)cn2C[C@@H]2[C@@H]3C[C@@H]3CN12 [Compound B-9] |  | 2
COCCN1CN(C)n2cc(-c3ncc(Cc4ccc(F)cc4F)s3)c(=O)c(O)c2C1=O [Compound C-13] |  | 2.7
O=C1c2c(O)c(=O)c(-c3nnc(Cc4cccc(Cl)c4F)s3)cn2C[C@@H]2CCCCN12 [Compound B-6] |  | 7.5
C[C@@H]1CO[C@H]2Cn3cc(-c4nnc(Cc5cccc(Cl)c5F)s4)c(=O)c(O)c3C(=O)N2C1 [Compound A-22] |  | 1.7
O=C1c2c(O)c(=O)c(-c3nnc(Cc4ccc(F)cc4F)s3)cn2C[C@@H]2C[C@@H](F)CCN12 [Compound B-21] |  | 4
C[C@@H]1CCO[C@H]2Cn3cc(-c4nnc(Cc5c(Cl)ccc(Cl)c5F)s4)c(=O)c(O)c3C(=O)N12 [Compound A-27] |  | 3.5
C[C@@H]1CCO[C@H]2Cn3cc(-c4nnc(Cc5cccc(Cl)c5F)s4)c(=O)c(O)c3C(=O)N12 [Compound A-17] |  | 2.3
O=C1c2c(O)c(=O)c(-c3nnc(Cc4ccc(F)cc4F)s3)cn2CN2CCOCCN12 [Compound C-16] |  | 8.5
O=C1c2c(O)c(=O)c(-c3nnc(Cc4cccc(Cl)c4F)s3)cn2C[C@H]2CCCCN12 [Compound B-5] |  | 6.7
O=C1c2c(O)c(=O)c(-c3nnc(Cc4ccc(F)cc4F)s3)cn2CN2CCCN12 [Compound C-19] |  | 4.2
C[C@@H]1CCO[C@H]2Cn3cc(-c4nnc(Cc5c(F)ccc(Cl)c5F)s4)c(=O)c(O)c3C(=O)N12 [Compound A-25] |  | 3.4
O=C1c2c(O)c(=O)c(-c3nnc(Cc4ccc(F)cc4F)s3)cn2C[C@@H]2O[C@H]3CC[C@H](C3)N12 [Compound A-66] |  | 7.2
COCCN1C(=O)c2c(O)c(=O)c(-c3nnc(Cc4ccc(F)cc4F)s3)cn2CN1C [Compound C-20] |  | 1.7
O=C1c2c(O)c(=O)c(-c3nnc(Cc4ccc(F)cc4F)s3)cn2C[C@H]2COCCN12 [Compound B-11] |  | 5.9

Further lines, with some results ahead:

EC50 [nM] | Structure (SMILES) | EC50 [1] [nM]
5.8 | CCN1CN(CCOC)C(=O)c2c(O)c(=O)c(-c3ncc(Cc4ccc(F)cc4F)s3)cn21 [Compound C-10] | 
2.2 | O=C1c2c(O)c(=O)c(-c3nnc(Cc4cccc(Cl)c4F)s3)cn2CN2CCCCN12 [Compound C-14] | 
